Experimental findings from US11572353B2, “Alkynyl-substituted heterocyclic compound, preparation method therefor and medical use thereof” (BEIJING INNOCARE PHARMA TECH CO., LTD., priority 2016, dated 2023) are described below.

Assay [1] deals with human recombinant FGFR1 catalytic domain protein (amino acid 308-731) (Homo sapiens (Human), UniProt P11362). As to the kind of experiment: FGFR1 activity inhibition test (HTRF kinase assay). The format is biochemical. The note with it: 40 μM ATP. As for the experimental part:
(§1) The effect of the compounds of the present invention on the in vitro activity of FGFR was assessed by measuring the phosphorylation level of the substrate in a kinase reaction using the HTRF kinase assay kit (Table 1).
(§2) If the IC50 value of a compound is very low, the initial concentration of the compound can be lowered.
(§3) The IC50 value of the compound was calculated from the 10 concentration points using the XLfit software in Excel by the following formula: Y=Bottom+(Top−Bottom)/(1+10^((log IC50−X)*slope factor))
(§4) Where Y is the percentage of inhibition, Bottom is the bottom platform value of the S-curve, Top is the top platform value of the S-curve, X is the logarithm of the concentration of the compound to be tested, and slope factor is the slope coefficient of the curve.
In general terms: In TR-FRET formats the signal depends on donor and acceptor labels being close together.

In assay [2] the target is human recombinant FGFR4 catalytic domain protein (amino acid 460-802) (Homo sapiens (Human), UniProt P22455). As to the kind of experiment: FGFR4 activity inhibition test (HTRF kinase assay). Type of assay: biochemical. The note with it: 90 μM ATP. As for the experimental part:
as §1, §2, §3, §4

A further assay has as its system Hep3B hepatoma cell line. The assay is described as follows: Inhibition on the proliferation of Hep3B cells (luminescent cell viability assay). Type of assay: cell-based. To be noted: Homo sapiens, 72 hours. The protocol:
The effect of the compounds of the present invention on cell proliferation of Hep3B hepatoma cell line was assessed using a luminescent cell viability assay (Table 2).
(§5) CellTilter-Glo reagent (Promega, Cat. No. G7572) consists of CTG lyophilized powder and CTG buffer. Before use, the lyophilized powder needs to be dissolved in the buffer.
(§6) After overnight incubation, 3 μL of DMEM diluted compound was added to each well, which was then gently centrifuged to mix well, and then the 384-well plate was placed in a 37° C., 5% CO2 incubator to continue the culture, and after 72 hours, the plate was taken out and allowed to stand at room temperature for 30 minutes, next added 15 μL of CTG reagent per well, which was warmed up to room temperature, the plate was shaken gently on a shaker for 3 minutes to ensure sufficient cell lysis, allowed to stand 10 minutes to stabilize the luminescence signal, and then read the luminescence signal with EnVision (Perkin Elmer).
as §4

The test system of assay [3] is RT4 bladder cancer cell line. The assay is described as follows: Inhibition on the proliferation of RT4 cells (luminescent cell viability assay). Type of assay: cell-based. The note with it: Homo sapiens, RT-4, 72 hours. The protocol:
as §5, §6, §4
The effect of the compounds of the present invention on cell proliferation of the RT4 bladder cancer cell line was assessed using a luminescent cell viability assay (Table 2).
(§7) For the experimental method, please refer to the method for determining the inhibition on the proliferation of Hep3B cells.

For assay [4], the system named is SNU-16 gastric cancer cell line. As to the kind of experiment: Inhibition on the proliferation of SNU-16 cells (luminescent cell viability assay). Type of assay: cell-based. The note with it: Homo sapiens, 72 hours. As for the experimental part:
as §5, §6, §4
The effect of the compounds of the present invention on cell proliferation of SNU-16 gastric cancer cell line was assessed using a luminescent cell viability assay (Table 2).
as §7

Assay [5] concerns the target human recombinant FGFR2 catalytic domain protein (amino acid 400-821) (Homo sapiens (Human), UniProt P21802). The assay is described as follows: FGFR2 activity inhibition test (HTRF kinase assay). Type of assay: biochemical. To be noted: 50 μM ATP. The protocol:
as §1, §2, §3, §4

The target of assay [6] is human recombinant FGFR3 catalytic domain protein (amino acid 399-806) (Homo sapiens (Human), UniProt P22607). As to the kind of experiment: FGFR3 activity inhibition test (HTRF kinase assay). The format is biochemical. The note with it: 90 μM ATP. As for the experimental part:
as §1, §2, §3, §4

human recombinant FGFR2 catalytic domain protein (amino acid 400-821), sequence (P21802 400-821): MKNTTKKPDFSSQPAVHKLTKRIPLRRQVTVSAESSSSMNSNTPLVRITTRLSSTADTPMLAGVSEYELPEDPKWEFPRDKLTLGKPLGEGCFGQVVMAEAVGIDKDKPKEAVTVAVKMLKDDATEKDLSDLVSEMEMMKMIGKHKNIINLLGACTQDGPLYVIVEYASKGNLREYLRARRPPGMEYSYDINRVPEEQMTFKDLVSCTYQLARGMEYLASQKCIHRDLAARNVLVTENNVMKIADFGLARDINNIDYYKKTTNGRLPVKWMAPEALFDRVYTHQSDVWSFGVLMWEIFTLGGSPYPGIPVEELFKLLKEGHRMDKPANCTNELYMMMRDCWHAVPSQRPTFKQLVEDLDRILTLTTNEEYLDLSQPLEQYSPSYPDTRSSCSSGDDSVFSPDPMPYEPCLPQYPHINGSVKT
human recombinant FGFR4 catalytic domain protein (amino acid 460-802), sequence (P22455 460-802): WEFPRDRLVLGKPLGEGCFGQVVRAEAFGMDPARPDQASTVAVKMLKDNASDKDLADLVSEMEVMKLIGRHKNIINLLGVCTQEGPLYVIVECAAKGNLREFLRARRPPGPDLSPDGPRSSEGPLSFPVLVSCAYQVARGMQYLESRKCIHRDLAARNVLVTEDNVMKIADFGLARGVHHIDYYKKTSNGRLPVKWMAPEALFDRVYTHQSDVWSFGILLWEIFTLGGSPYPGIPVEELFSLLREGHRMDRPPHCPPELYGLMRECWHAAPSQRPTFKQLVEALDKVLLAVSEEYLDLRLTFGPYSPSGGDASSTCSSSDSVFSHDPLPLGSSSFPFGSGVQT
human recombinant FGFR1 catalytic domain protein (amino acid 308-731), sequence (P11362 other isoform, or with tags, fused parts or gaps): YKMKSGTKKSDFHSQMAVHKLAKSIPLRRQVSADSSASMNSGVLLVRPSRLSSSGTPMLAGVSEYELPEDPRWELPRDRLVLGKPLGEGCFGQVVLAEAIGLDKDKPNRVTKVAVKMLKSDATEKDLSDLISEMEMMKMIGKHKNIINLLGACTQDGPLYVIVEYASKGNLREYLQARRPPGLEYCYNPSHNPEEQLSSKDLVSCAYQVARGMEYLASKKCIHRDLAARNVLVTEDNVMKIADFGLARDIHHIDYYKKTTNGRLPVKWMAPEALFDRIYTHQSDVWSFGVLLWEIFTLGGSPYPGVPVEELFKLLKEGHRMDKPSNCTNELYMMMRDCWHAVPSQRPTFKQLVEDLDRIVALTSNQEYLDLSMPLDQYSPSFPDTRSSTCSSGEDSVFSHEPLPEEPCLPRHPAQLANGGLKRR
human recombinant FGFR3 catalytic domain protein (amino acid 399-806), sequence (P22607 399-806): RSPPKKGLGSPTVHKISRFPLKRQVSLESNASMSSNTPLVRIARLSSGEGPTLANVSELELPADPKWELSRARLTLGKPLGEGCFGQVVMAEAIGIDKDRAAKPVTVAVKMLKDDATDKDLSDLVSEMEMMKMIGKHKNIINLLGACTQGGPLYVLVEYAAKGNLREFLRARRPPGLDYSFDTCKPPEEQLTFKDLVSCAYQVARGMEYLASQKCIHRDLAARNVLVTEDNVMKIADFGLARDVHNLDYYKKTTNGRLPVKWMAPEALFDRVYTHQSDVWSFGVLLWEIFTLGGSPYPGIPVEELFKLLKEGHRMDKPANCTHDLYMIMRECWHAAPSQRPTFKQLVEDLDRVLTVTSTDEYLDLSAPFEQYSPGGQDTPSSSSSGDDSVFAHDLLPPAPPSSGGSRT

Turning to `CC#CC(=O)N1CC[C@H](n2nc(C#Cc3cc(OC)cc(OC)c3)c(C(N)=O)c2N)C1` [Compound 10], the IC50 (as a rule, the concentration needed to halve the response being measured) in assay [1] is 10 to 100 nM; in assay [2] it was 10 to 100 nM; with Hep3B hepatoma cell line, 10 to 100 nM; in assay [3] it was 10 to 100 nM; in assay [4] it was less than 10 nM.
For the molecule `C=CC(=O)N1CC[C@H](n2nc(C#Cc3cc(OC)cc(OC)c3)c(C(N)=O)c2NCCCN2CCOCC2)C1` [Compound 30, (S)-1-(1-acryloylpyrrolidin-3-yl)-3-((3,5-dimethoxyphenyl)ethynyl)-5-((3-morpholinopropyl)amino)-1H-pyrazole-4-carboxamide], the IC50 in assay [1] is 10 to 100 nM; in assay [5] it was less than 10 nM; in assay [6], less than 10 nM; in assay [2], 10 to 100 nM; with Hep3B hepatoma cell line, 10 to 100 nM; in assay [3], less than 10 nM. Also, the half-maximal inhibitory concentration (IC50) in assay [4] is less than 10 nM.
With `C=CC(=O)N1CC[C@H](n2nc(C#Cc3cc(OC)cc(OC)c3)c(C(N)=O)c2NCCO)C1` [Compound 29, (S)-1-(1-acryloylpyrrolidin-3-yl)-3-((3,5-dimethoxyphenyl)ethynyl)-5-((2-hydroxyethyl)amino)-1H-pyrazole-4-carboxamide], the IC50 is 10 to 100 nM in assay [1]; less than 10 nM in assay [5]; less than 10 nM in assay [6]; 10 to 100 nM in assay [2]; less than 10 nM in the assay with Hep3B hepatoma cell line; less than 10 nM in assay [3]. The IC50 in assay [4] was less than 10 nM.
Turning to `C=CC(=O)N1CC[C@H](n2nc(C#Cc3cc(OC)cc(OC)c3)c(C(N)=O)c2NCC2CC2)C1` [Compound 26, (S)-1-(1-acryloylpyrrolidin-3-yl)-5-((cyclopropylmethyl)amino)-3-((3,5-dimethoxyphenyl)ethynyl)-1H-pyrazole-4-carboxamide], the IC50 is less than 10 nM in assay [1]; less than 10 nM in assay [5]; less than 10 nM in assay [6]; less than 10 nM in assay [2]; 10 to 100 nM in the assay with Hep3B hepatoma cell line; less than 10 nM in assay [3]. In assay [4], this molecule had an IC50 of less than 10 nM.
Consider `C=CC(=O)N1CC[C@H](n2nc(C#Cc3cc(OC)cc(OC)c3)c(C(N)=O)c2N)C1` [Compound 7, (S)-1-(1-acryloylpyrrolidin-3-yl)-5-amino-3-((3,5-dimethoxyphenyl)ethynyl)-1H-pyrazole-4-carboxamide], for which the 50% inhibitory concentration (IC50) (in assay [1]; in assay [5]; in assay [6]; in assay [2]; in the assay on Hep3B hepatoma cell line; in assay [3]) was less than 10 nM throughout. Besides, the IC50 in assay [4] was less than 10 nM.
As for `C=CC(=O)N1CC[C@H](n2nc(C#Cc3cc(OC)cc(OC)c3F)c(C(N)=O)c2N)C1` [Compound 17, (S)-1-(1-acryloylpyrrolidin-3-yl)-5-amino-3-((2-fluoro-3,5-dimethoxyphenyl)ethynyl)-1H-pyrazole-4-carboxamide], the IC50 (in assay [1]; in assay [5]; in assay [6]; in assay [2]; in the assay on Hep3B hepatoma cell line; in assay [3]) was less than 10 nM throughout. The IC50 in assay [4] was less than 10 nM.
As for `COc1cc(C#Cc2nn([C@H]3CCN(C#N)C3)c(N)c2C(N)=O)cc(OC)c1` [Compound 12, (S)-5-amino-1-(1-cyanopyrrolidin-3-yl)-3-((3,5-dimethoxyphenyl)ethynyl)-1H-pyrazole-4-carboxamide], the IC50 in assay [1] was 100 to 1000 nM; in assay [5] it was less than 10 nM; in assay [6], less than 10 nM; in assay [2], 10 to 100 nM; in the assay on Hep3B hepatoma cell line, 100 to 1000 nM; in assay [3], 100 to 1000 nM.
Regarding `C=CC(=O)N1CC[C@H](n2cc(C(N)=O)c(C#Cc3cc(OC)cc(OC)c3)n2)C1` [Compound 1, (S)-1-(1-acryloylpyrrolidin-3-yl)-3-((3,5-dimethoxyphenyl)ethynyl)-1H-pyrazole-4-carboxamide], the IC50 (in assay [1]; in assay [5]; in assay [6]; in assay [2]; with Hep3B hepatoma cell line; in assay [3]) was 10 to 100 nM throughout. In addition, the IC50 in assay [4] was in the range of 10 to 100 nM.
`C=CC(=O)N1CC[C@H](n2nc(C#Cc3cc(OC)cc(OC)c3F)c(C(N)=O)c2NC)C1` [Compound 22, (S)-1-(1-acryloylpyrrolidin-3-yl)-3-((2-fluoro-3,5-dimethoxyphenyl)ethynyl)-5-(methylamino)-1H-pyrazole-4-carboxamide]: the IC50 (in assay [1]; in assay [5]; in assay [6]; in assay [2]; in the assay on Hep3B hepatoma cell line; in assay [3]) was less than 10 nM in each case. The molecule further registered a 50% inhibitory concentration (IC50) in assay [4] of less than 10 nM.
On to `C=CC(=O)N1CC[C@H](n2nc(C#Cc3cc(Cl)ccc3F)c(C(N)=O)c2NC)C1` [Compound 23, (S)-1-(1-acryloylpyrrolidin-3-yl)-3-((5-chloro-2-fluorophenyl)ethynyl)-5-(methylamino)-1H-pyrazole-4-carboxamide], for which the IC50 in assay [1] was 10 to 100 nM; in assay [5], less than 10 nM; in assay [6], less than 10 nM; in assay [2] it was 10 to 100 nM; in the assay with Hep3B hepatoma cell line, less than 10 nM; in assay [3] it was 10 to 100 nM. The molecule also came in with an IC50 in assay [4] of less than 10 nM.
For `C=CC(=O)N1CC[C@H](n2nc(C#Cc3cc(OC)cc(OC)c3)c(C(N)=O)c2NCCN2CCOCC2)C1` [Compound 31, (S)-1-(1-acryloylpyrrolidin-3-yl)-3-((3,5-dimethoxyphenyl)ethynyl)-5-((2-morpholinoethyl)amino)-1H-pyrazole-4-carboxamide], the IC50 in assay [1] was 10 to 100 nM; in assay [5], less than 10 nM; in assay [6] it was less than 10 nM; in the assay with Hep3B hepatoma cell line, 10 to 100 nM; in assay [3], less than 10 nM; in assay [4], less than 10 nM.
